The target in experiment [1] is T1, MAP/microtubule affinity-regulating kinase 4 (Homo sapiens) (UniProt Q96L34).
T1 sequence (whole entry): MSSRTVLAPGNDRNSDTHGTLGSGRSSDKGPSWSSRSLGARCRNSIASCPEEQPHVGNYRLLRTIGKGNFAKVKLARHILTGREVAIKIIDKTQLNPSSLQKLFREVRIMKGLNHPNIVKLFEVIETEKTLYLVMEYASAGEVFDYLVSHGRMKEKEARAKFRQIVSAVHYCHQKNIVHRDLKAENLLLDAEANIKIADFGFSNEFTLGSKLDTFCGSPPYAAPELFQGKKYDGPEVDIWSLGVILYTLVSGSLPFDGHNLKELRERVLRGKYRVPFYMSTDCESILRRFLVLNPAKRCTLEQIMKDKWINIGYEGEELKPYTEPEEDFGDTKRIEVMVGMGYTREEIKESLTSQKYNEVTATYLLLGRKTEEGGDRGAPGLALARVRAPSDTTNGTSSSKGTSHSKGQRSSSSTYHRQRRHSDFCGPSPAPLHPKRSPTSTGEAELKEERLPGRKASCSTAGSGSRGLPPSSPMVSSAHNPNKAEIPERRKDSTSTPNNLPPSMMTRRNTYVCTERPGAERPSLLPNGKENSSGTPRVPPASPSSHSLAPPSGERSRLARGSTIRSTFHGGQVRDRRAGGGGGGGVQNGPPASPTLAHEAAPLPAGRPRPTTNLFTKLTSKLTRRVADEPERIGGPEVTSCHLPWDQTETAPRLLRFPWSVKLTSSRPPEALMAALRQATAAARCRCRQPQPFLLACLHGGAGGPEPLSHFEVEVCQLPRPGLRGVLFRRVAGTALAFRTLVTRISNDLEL
The experiment in a line: Binding affinity to MARK4 (unknown origin) assessed as Gibbs free energy change by MM-GBSA method.

Experiment [2] has as its target T1, MAP/microtubule affinity-regulating kinase 4 (Homo sapiens). Nature of the experiment: Binding affinity to MARK4 (unknown origin) assessed as binding constant by fluorescence binding assay based spectroscopy.
For experiment [3] the target is unchanged. Nature of the experiment: Binding affinity to MARK4 (unknown origin) assessed as association constant by isothermal titration calorimetry. On the technique in general: Isothermal titration calorimetry measures the heat released or taken up as one component is titrated into another.
Experiment [4] shares this target. Nature of the experiment: Binding affinity to MARK4 (unknown origin) assessed as change in enthalpy by isothermal titration calorimetry.
The target is the same in experiment [5]. The experiment in a line: Binding affinity to MARK4 (unknown origin) assessed as change in entropy by isothermal titration calorimetry.
Experiment [6] has as its target T2, MAP/microtubule affinity-regulating kinase 4 (Homo sapiens, UniProt Q96L34).
T2 sequence (Q96L34 whole entry): T1 sequence (whole entry)
The experiment in a line: Inhibition of MARK4 (unknown origin) ATPase activity using ATP as substrate incubated for 1.5 hr in presence of MgCl2 by Biomol green reagent based ELISA. (ELISA stands for enzyme-linked immunosorbent assay.)

The structures appear in SMILES notation.

The values that follow come from ChEMBL document CHEMBL5107977, “Inhibition of MARK4 by serotonin as an attractive therapeutic approach to combat Alzheimer's disease and neuroinflammation” (RSC Med Chem, 2022).

As usually defined, the IC50 is the concentration that gives 50% inhibition.

Regarding `NCCc1c[nH]c2ccc(O)cc12` [SEROTONIN], the deltaG in experiment [1] is -137 kJ/mol. Also, the K in experiment [2] is 0.3 10^6/M. Besides, the Ka in experiment [3] is 148 10^4/M. Also, the deltaH in experiment [4] was -369 kJ/mol. Also, the deltaS in experiment [5] is -286 cal/mol/deg. The IC50 in experiment [6] came out at 2.99 µM.
